Values after ≈ are worked out from the molar mass of the structure shown. “Also recorded” adds a separate entry of the source.
Assays:
DDR1 (h) = DDR1 (h) (Homo sapiens (Human), UniProt Q08345); test: DDR1 kinase inhibition, [γ-33P]-ATP filter assay; assay type: biochemical
Protocol: (§1) DDR1 (h) was incubated with 8 mM MOPS pH 7.0, 0.2 mM EDTA, 250 μM KKKSPGEYVNIEFG (SEQ ID NO: 1), 10 mM magnesium acetate and [γ-33P]-ATP (specific activity and concentration as required). The reaction was initiated by the addition of the Mg/ATP mix. After incubation for 40 minutes at room temperature, the reaction was stopped by the addition of phosphoric acid to a concentration of 0.5%. An aliquot of the reaction was then spotted onto a filter and washed four times for 4 minutes in 0.425% phosphoric acid and once in methanol prior to drying and scintillation counting.

DDR2 (h) = DDR2 (h) (Homo sapiens (Human), UniProt Q16832); test: DDR2 kinase inhibition, [γ-33P]-ATP filter assay; assay type: biochemical
Protocol: as §1, with “DDR2” for “DDR1”, “KKSRGDYMTMQIG” for “KKKSPGEYVNIEFG”, “TD” for “ID”, “2), 10 mM MnCl2,” for “1),”

[1] = system: 97 kinases (90 WT kinase and 7 mutants); test: Kinase selectivity profiling (ScanEDGE, DiscoveRx) competition binding, qPCR readout; details: for Selectivity Score S(1) / Selectivity Score S(10) / Selectivity Score S(35): number of hits/number of assays, excluding mutants, 1000 nM; for # of Hits, S(35) / # of Hits, S(10) / # of Hits, S(1): screened at 1000 nM; for # of Hits, S(35): kinases inhibited by >65%; for # of Hits, S(10): kinases inhibited by >90%; for # of Hits, S(1): kinases inhibited by >99%
Source text: (§2) Compounds that bind the kinase active site and directly (sterically) or indirectly (allosterically) prevent kinase binding to the immobilized ligand, will reduce the amount of kinase captured on the solid support. […] Screening “hits” are identified by measuring the amount of kinase captured in test versus control samples by using a quantitative qPCR method that detects the associated DNA label. Dissociation constants (Kds) for test compound-kinase interactions can be calculated by measuring the amount of kinase captured on the solid support as a function of the test compound concentration.
(§3) Kinase-tagged T7 phage strains were grown in parallel in 24-well blocks in an E. coli host derived from the BL21 strain. E. coli were grown to log-phase and infected with T7 phage from a frozen stock (multiplicity of infection=0.4) and incubated with shaking at 32° C. until lysis (90-150 minutes). The lysates were centrifuged (6,000×g) and filtered (0.2 μm) to remove cell debris. The remaining kinases were produced in HEK-293 cells and subsequently tagged with DNA for qPCR detection. Streptavidin-coated magnetic beads were treated with biotinylated small molecule ligands for 30 minutes at room temperature to generate affinity resins for kinase assays. The liganded beads were blocked with excess biotin and washed with blocking buffer (SeaBlock (Pierce), 1% BSA, 0.05% Tween 20, 1 mM DTT) to remove unbound ligand and to reduce non-specific phage binding. Binding reactions were assembled by combining kinases, liganded affinity beads, and test compounds in 1x binding buffer (20% SeaBlock, […], 0.05% Tween 20, 6 mM DTT). Test compounds were prepared as 40x stocks in 100% DMSO and directly diluted into the assay. All reactions were performed in polypropylene 384-well plates in a final volume of 0.02 mL. The assay plates were incubated at room temperature with shaking for 1 hour and the affinity beads were washed with wash buffer (1×PBS, 0.05% Tween 20). The beads were then re-suspended in elution buffer (1×PBS, 0.05% Tween […] non-biotinylated affinity ligand) and incubated at room temperature with shaking for 30 minutes. The kinase concentration in the eluates was measured by qPCR.
(§4) The compounds were screened at 1000 nM, and results for primary screen binding interactions were determined as “% Ctrl”. % Ctrl=[(test compound signal−positive control signal)/(negative control signal−positive control signal)]*100. Negative control was 100% DMSO. Test compounds were Compounds 1-4. Positive control was a control compound.
Selectivity Score or S-score is a quantitative measure of compound selectivity for DDR2. It was calculated by dividing the number of kinases that compounds bind to by the total number of distinct kinases tested, excluding mutant variants. S=number of hits/number of assays. % Ctrl was used as a potency threshold. Selectivity score values of CS analogs provided in Table 2 reflect the number of kinases inhibited by >65% (S35), >90% (S10), or 99% (S1) by Compounds 1-4.

p38-alpha = p38-alpha (Homo sapiens (Human), UniProt Q16539); test: Binding to p38-alpha, % of DMSO control (kinase binding screen); details: smaller numbers indicate stronger binding; screened at 1000 nM
Source text: as §2, §3, §4
Table 3 provides binding affinity scores for p38-alpha as a percent relative to DMSO control. Smaller numbers indicate stronger binding.

[2] = Solubility in pH 7.4 phosphate buffer; assay type: physicochemical; details: aqueous buffer
Stability in HBSS buffer = assay type: physicochemical
Stability in plasma = assay type: in vitro ADME; details: all animals
Caco-2 permeability = assay type: in vitro ADME; details: human, Caco-2; Bi-directional; read-out: Caco-2 permeability, bidirectional efflux ratio
Caco-2 = Caco-2 permeability; assay type: in vitro ADME
[3] = Liver S9 stability (SD rat, beagle, human), overall; assay type: in vitro ADME
Liver S9 stability, rat = assay type: in vitro ADME; details: SD
[4] = Liver S9 stability, human; assay type: in vitro ADME
Liver S9 stability, dog = assay type: in vitro ADME; details: beagle
[5] = Stability in simulated synovial fluid; assay type: physicochemical
[6] = PK following IV dosing in male SD rats; details: rat, in vivo, IV 1 mg/kg
[7] = system: articular cartilage of mouse knee joints; test: DMM surgery injurious mouse model of osteoarthritis, knee articular cartilage; assay type: in vivo; details: for Average articular cartilage score: treatment from 4 weeks after surgery
Protocol: Based on a pilot experiment,^1 the sample size of minimum 6 is required by the power analysis to achieve the specified confidence interval (95%) with at least 50% reduction of the score in the treatment group. Mouse knee joints were subjected to DMM surgery. Four weeks following the surgery, mice were treated with compound 3. Significant disparity was found in the progression of articular cartilage degeneration in knee joints with or without the treatment of compound 3 (FIG. 1).
The condition of the articular cartilage was also evaluated by the scoring system.^3 At 8 weeks after DMM surgery, the average scores for mice without and with treatment using compound 3 were 2.50 and 1.00, respectively. At 12 weeks following DMM surgery, the average scores were 4.75 for mice not treated with compound 3 and 2.83 for mice treated with compound 3. […] In addition, osteophytes and other abnormal morphology were not observed in the subchondral bone and synovial tissue in mice with or without the treatment with compound 3.

DDR2 = test: Protein expression of DDR2 in articular cartilage after DMM (staining); assay type: in vivo, mouse; details: 8 weeks after DMM
Source text: (§5) Inhibitory induction of Ddr2 and Mmp-13 in articular cartilage of knee joints was observed after treatment with the compound 3. The protein expressions of Ddr2 and Mmp-13 were examined in the articular cartilage of mouse knee joints at 8 weeks after DMM, with or without the treatment with compound 3.

Mmp-13 = test: Protein expression of Mmp-13 in articular cartilage after DMM (staining); assay type: in vivo, mouse; details: 8 weeks after DMM
Source text: as §5

Chain of p38-alpha (Q16539 whole entry): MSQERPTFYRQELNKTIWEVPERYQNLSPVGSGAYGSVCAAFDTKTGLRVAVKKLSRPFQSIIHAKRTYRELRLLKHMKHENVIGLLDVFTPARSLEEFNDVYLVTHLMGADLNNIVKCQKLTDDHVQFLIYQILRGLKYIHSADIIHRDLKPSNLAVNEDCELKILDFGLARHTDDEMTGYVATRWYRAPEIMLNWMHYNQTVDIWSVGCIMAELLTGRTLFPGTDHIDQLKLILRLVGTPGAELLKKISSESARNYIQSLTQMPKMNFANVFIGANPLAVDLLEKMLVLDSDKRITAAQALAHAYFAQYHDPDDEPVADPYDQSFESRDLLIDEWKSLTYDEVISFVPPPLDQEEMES
Chain of DDR2 (h) (Q16832 22-855): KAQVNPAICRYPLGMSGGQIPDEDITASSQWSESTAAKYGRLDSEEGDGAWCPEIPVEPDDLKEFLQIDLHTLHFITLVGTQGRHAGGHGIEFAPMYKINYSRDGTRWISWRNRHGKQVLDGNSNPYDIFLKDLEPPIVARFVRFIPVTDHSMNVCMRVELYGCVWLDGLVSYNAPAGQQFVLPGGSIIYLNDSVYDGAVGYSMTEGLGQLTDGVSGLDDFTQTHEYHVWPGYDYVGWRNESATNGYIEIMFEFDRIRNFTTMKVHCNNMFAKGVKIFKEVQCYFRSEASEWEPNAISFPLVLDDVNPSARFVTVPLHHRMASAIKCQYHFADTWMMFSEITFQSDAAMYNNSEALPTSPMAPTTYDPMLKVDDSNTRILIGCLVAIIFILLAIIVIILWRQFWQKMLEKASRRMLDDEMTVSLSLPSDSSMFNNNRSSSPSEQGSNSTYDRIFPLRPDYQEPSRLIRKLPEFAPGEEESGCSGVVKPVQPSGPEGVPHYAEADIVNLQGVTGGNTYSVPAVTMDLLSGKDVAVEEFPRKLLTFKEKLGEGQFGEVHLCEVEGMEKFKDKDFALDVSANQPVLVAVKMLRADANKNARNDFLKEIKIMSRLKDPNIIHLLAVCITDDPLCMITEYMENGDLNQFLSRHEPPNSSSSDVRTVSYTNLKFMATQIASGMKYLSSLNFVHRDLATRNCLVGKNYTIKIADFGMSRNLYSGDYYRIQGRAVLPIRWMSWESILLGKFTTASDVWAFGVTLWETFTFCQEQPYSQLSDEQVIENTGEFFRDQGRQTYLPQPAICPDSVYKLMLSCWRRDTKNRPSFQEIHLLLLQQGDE
Chain of DDR1 (h) (Q08345 19-913): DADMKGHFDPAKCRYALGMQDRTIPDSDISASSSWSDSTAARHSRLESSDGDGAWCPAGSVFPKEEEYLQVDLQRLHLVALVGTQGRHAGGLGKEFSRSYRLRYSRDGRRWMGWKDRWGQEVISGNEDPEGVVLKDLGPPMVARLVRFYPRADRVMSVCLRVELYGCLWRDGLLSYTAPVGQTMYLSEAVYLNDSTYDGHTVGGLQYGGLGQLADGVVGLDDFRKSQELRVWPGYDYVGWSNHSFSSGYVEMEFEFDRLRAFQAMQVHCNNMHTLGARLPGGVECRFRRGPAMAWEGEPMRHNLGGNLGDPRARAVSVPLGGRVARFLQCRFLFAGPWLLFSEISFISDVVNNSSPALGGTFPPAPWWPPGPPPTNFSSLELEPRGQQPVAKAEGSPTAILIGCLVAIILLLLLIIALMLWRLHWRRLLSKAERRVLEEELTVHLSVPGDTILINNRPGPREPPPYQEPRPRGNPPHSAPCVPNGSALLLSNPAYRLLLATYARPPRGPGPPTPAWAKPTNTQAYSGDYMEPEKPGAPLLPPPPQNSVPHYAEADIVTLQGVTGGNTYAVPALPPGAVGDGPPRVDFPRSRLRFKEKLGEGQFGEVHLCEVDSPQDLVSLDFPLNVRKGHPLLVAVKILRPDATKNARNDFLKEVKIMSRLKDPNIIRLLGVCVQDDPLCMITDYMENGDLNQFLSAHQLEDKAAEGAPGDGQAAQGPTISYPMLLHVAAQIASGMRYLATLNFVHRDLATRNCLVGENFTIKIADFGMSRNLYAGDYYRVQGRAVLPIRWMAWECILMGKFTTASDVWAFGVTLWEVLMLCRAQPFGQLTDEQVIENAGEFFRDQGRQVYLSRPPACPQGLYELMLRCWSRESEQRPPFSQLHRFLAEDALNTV

SMILES	IC50 (DDR1 (h)) [nM]	IC50 (DDR2 (h)) [nM]	Selectivity Score S(1) [1]	Selectivity Score S(10) [1]	Selectivity Score S(35) [1]	# of Hits, S(35) [1]	# of Hits, S(10) [1]	# of Hits, S(1) [1]	Binding affinity score for p38-alpha as percent relative to DMSO control (p38-alpha) [% Ctrl]	solubility [2] [µM]	Stability in HBSS (buffer) (Stability in HBSS buffer) [min in buffer]	Stability in plasma (Stability in plasma)	Caco-2 unidirectional permeability (in words) (Caco-2)	Liver S9 stability (in words) [3]	Stability in simulated synovial fluid [5] [days]	further results
Cc1ccc(O)cc1Nc1ccnc(Nc2cccc(S(C)(=O)=O)c2)n1 [Compound 1, 4-methyl-3-[[2-(3-methylsulfonylanilino)pyrimidin-4-yl]amino]phenol]	13	260	0.078	0.244	0.322	29	22	7	0.5	16 (≈ 5.93 µg/mL)	>120	>360 min (all	Very high	Rapid clearance	>5	efflux ratio (Caco-2 permeability): 4.27; half-life (Liver S9 stability, rat): 20 min; half-life [4]: < 10 min; half-life (Liver S9 stability, dog): < 10 min; AUC(0-t) [6]: 122 ng·h/mL; C0 [6]: 548 ng/mL; clearance [6]: 137 mL/min/kg; half-life [6]: 19.1 min; Vd ([6]; read-out: VSS): 2.11 L/kg
COc1ccc(S(N)(=O)=O)cc1Nc1nccc(N(C)c2ccc(N)cc2)n1 [Compound 3, 3-[[4-(4-amino-N-methyl-anilino)pyrimidin-2-yl]amino]-4-methoxy-benzenesulfonamide]	55	> 3300	0.056	0.089	0.178	16	8	5	83	13.3 (≈ 5.33 µg/mL)	>120	>360 min (all	Very high	Very stable	>5	Cartilage damage score, treated versus untreated mice ([7]; 8 and 12 weeks after DMM): significant differences; Morphology of articular cartilage ([7]; 8 weeks after DMM surgery): localized chondrocyte clusters, but no fibrillation; also recorded: only chondrocyte clusters; Average articular cartilage score ([7]; 8 weeks after DMM surgery): 1.00; Morphology of articular cartilage ([7]; 12 weeks after DMM surgery): only localized absence of the proteoglycans; also recorded: only localized proteoglycan degradation; Average articular cartilage score ([7]; 12 weeks after DMM surgery): 2.83; Progressive process of articular cartilage degeneration ([7]; DMM-induced, mouse knee joints): Significant delay; also recorded: dramatically delayed; Osteophytes and other abnormal morphology in subchondral bone and synovial tissue ([7]; mice with or without treatment): not observed; DDR2 positive (stained) cells in articular cartilage (DDR2): dramatically reduced; also recorded: significant reduction; Mmp-13 positive (stained) cells in articular cartilage (Mmp-13): dramatically reduced; also recorded: significant reduction
COc1cc(Nc2nccc(Nc3ccc(N)cc3)n2)cc(S(C)(=O)=O)c1 [Compound 4, N4-(4-aminophenyl)-N2-(3-methoxy-5-(methylsulfonyl)phenyl)pyrimidine-2,4-diamine]	66	1570	0.022	0.122	0.233	21	11	2	87	213 (≈ 82.1 µg/mL)	>120	>360 min (all		Very stable	>5	
Cc1ccc(O)cc1Nc1ccnc(Nc2ccc(C(N)=O)cc2)n1 [Compound 2, 4-[[4-(5-hydroxy-2-methyl-anilino)pyrimidin-2-yl]amino]benzamide]	9	156	0.033	0.089	0.244	22	8	3	30	770 (≈ 258 µg/mL)	>120	>360 min (all	Very high	Rapid clearance	>5	
